Assays:
[1] = tested on: DU145 xenograft tumor; experiment: DU145 xenograft tumor growth in male athymic nude mice; type: in vivo; conditions: IFN-γ 1×10^7 IU/kg i.p. daily, DZNep 1 mg/kg s.c. every alternating day, 38 days
Method: For in vivo evaluation of DZNep and IFN-γ treatment, the experiments were conducted in compliance with animal protocol approved by the ASTAR-Biopolis Institutional Animal Care and Use Committee (IACUC) of Singapore. DU145 cells were subcutaneously injected into 6-8 week male nude mice at 5×10^6 cells, followed by treatment with vehicle, IFN-γ (1×10^7 IU/kg) alone, DZNep (1 mg/kg) alone or combined DZNep (1 mg/kg) with IFN-γ (1×10^7IU/kg). IFN-γ was administered by intraperitoneal injection daily and DZNep by subcutaneous injection on every alternating day over a duration of 38 days after average tumor size reached around 150 mm^3. Tumors were measured by vernier calliper at least twice per week and tumors volume was calculated with formula: V=W*W*L/2. Each xenograft treatment arm comprised of 5-8 mice. Differences among groups and treatments were determined by ANOVA followed by t tests. (***p<0.001, n.s=not significant) Error bars represent means±s.e.m

[2] = tested on: IFNGR1 promoter; experiment: ChIP analysis of EZH2 and H3K27me3 enrichments at IFNGR1 in DU145 cells; type: cell-based, human; conditions: DZNep (2.5 μM), 3 days
Method: ChIP assays were performed as described previously. […] The immunoprecipitated DNA was quantified by quantitative real-time PCR using KAPA SyBr Fast qPCR kit (KAPA biosystems) with the specific ChIP primers as listed in the Table 4. Quantification of binding to the promoter was defined as the percentage of the whole cell lysate input DNA. The fold enrichment was derived by normalizing the specific antibody enriched against the IgG-enriched chromatin. CNR1 serves a positive control and Actin is a negative control. Significance of target genes was assessed relative to Actin level.

[3] = tested on: RWPE1-MYC cells; experiment: FACS cell death analysis in RWPE1-MYC cells; type: cell-based, human; conditions: DZNep (2.5 μM) for 3 days with increasing doses of IFN-γ
Method: For the assessment of cell death, cells were harvested in 70% ethanol. Fixed cells were stained with Propidium Iodide (P.I) (50 μg/mL). The stained cells were analyzed for DNA content by FACS in a FACSCalibur (Becton Dickinson Instrument). % of cell death was defined as the sub-G1 population quantified using the CellQuest software (Becton Dickinson). The percentage of dead cells or sub-G1 cells was calculated by comparing the results of each experiment to the results from DMSO-treated cells. Each assay was repeated a minimum of three times, with results reported as means+s.e.m.

[4] = tested on: DU145-derived prostatospheres; experiment: Prostatosphere formation assay, DU145; type: cell-based, human; conditions: EZH2 knockdown in combination with IFN-γ, 7 days
Method: Prostatospheres were generated according to protocols known to the skilled person in the art. In order to obtain prostatospheres from either DU145 or LNCaP, exponentially growing cultures were dissociated to single cells by standard trypsinization, washed three times with PBS and plated at a density of 1×10^4 cells/well in 6-well ultra-low attachment plates (Corning) containing 3 ml of SCM medium (DMEM:F12 plus 10 ng/mL bFGF, 20 ng/mL EGF, […], and 0.4% BSA) supplemented with 1% KO serum replacement (Invitrogen/Gibco). The cells were treated with DZNep or IFN-γ as indicated the next day and cultured for 7 days. 7 days old prostatospheres formed were stained with 4 μg/ml p-Iodonitrotetrazolium Violet (INT) overnight and were counted and analyzed using a GelCount™ automatic plate scanner (Oxford Optronics) and GelCount Version 0.025.1 software (Oxford Optronics). Plates were scanned at 1200 dpi and the colony detection algorithm was optimized for each cell type and culture time.

[5] = tested on: IFN responsive genes (MX1, IRF1, IFI16); experiment: qRT-PCR of IFN responsive genes in PC3 cells; type: cell-based, human; conditions: in response to IFN-γ stimulation
Method: Target-specific siRNA and non-targeting control siRNA were purchased from 1st Base Singapore and Integrated DNA technologies (IDT) with the following target sequences respectively: EZH2 siRNA: 5′-GACUCUGAAUGCAGUUGCU-3′ (SEQ ID NO: 1); MYC siRNA: 5′-[…]-3′ (SEQ ID NO:2). All siRNA were designed by 1st Base Singapore and IDT respectively. For transfection, 30 nM siRNAs were used to transfect cells. 48 h after transfection cell pellets were collected and subjected indicated assays.
Total RNA was isolated by using Trizol (Invitrogen) and purified with the RNeasy Mini Kit (Qiagen). The microarray hybridization was performed using the Illumina Gene Expression Sentrix BeadChip HumanRef-8_V3, and data analysis was performed by GeneSpring software from Agilent Technologies as described previously. The analyzed gene sets by GeneSpring were next subjected to Ingenuity Pathway Analysis (IPA) for gene ontology (GO) analysis. Reverse transcription and quantitative PCR assays were performed using High Capacity cDNA Archive kit and KAPA SyBr Fast qPCR kit (KAPA biosystems). For quantification of mRNA levels, 18S level was used as an internal control. All reactions were analyzed in an Applied Biosystems PRISM 7500 Fast Real-Time PCR system in 96-well plate format.

[6] = tested on: DU145 cells; experiment: Cell proliferation assay (CellTiter-Glo) in DU145 cells; type: cell-based, human; conditions: siRNA knockdown combined with IFN-γ treatment
Method: The optimal cell seeding was determined empirically for all cell lines by examining the growth of a wide range of seeding densities in a 96-well format to identify conditions that permitted proliferation for 6 days. Cells were then plated at the optimal seeding density 24 h before siRNA or drug treatment in triplicate. Plates were incubated for 6 days at 37° C. in 5% CO2. Cells were then lysed with CellTiter-Glo (CTG) (Promega) and chemiluminescent signal was detected with a microplate reader (TECAN). In addition, an untreated plate of cells was harvested at the time of drug or siRNA addition (T0) to quantify the starting number of cells. CTG values obtained after the 6 day treatment were expressed as percentages of the T0 value and plotted against time of treatment. Cells received 1-5 μM of DZNep, 25 ng/mL of IFN-γ and 0.1-2.5 μM of GSK343 unless stated otherwise for 72-96 h.

[7] = tested on: JAK2 phosphorylation (Tyr1007/1008); experiment: pJAK2 and total JAK2 ELISA assay in DU145 cells; type: cell-based, human; conditions: in response to IFN-γ (25 ng/mL) stimulation
Method: pJAK2 levels were assessed using an ELISA assay kit (Tyr1007/1008, Life Technologies) and total JAK2 level with JAK2 (total) ELISA assay kit. Cells were first lysed with RIPA buffer and processed in the same way as western blot samples. pJAK2 and total JAK2 levels were determined by performing the ELISA assay on the processed cell lysates according to the manufacturer's protocol. The results were expressed as fold change after normalizing the pJAK2 (Tyr1007/1008) level to the total JAK2 level.

Compound	xenograft tumor growth [1]	EZH2 and H3K27me3 enrichments at the IFNGR1 gene promoter [2]	induction of apoptosis / cell death [3]	tumorsphere formation after knockdown [4]	activation of IFN genes after knockdown [5]	cell growth after knockdown [6]	JAK2 phosphorylation after knockdown [7]
Cl.Nc1nccc2c1ncn2[C@@H]1C=C(CO)[C@@H](O)[C@H]1O [DZNep, (−)-1-[(1R,4R,5S)-3-(Hydroxymethyl)-4,5-dihydroxy-2-cyclopenten-1-yl]4-aminoimidazo[4,5-c]pyridine hydrochloride]	slowed down the tumor growth	reduced both EZH2 and H3K27me3 enrichments	synergistic effect				
EZH2 knockdown: EZH2 siRNA: 5′-GACUCUGAAUGCAGUUGCU-3′ (SEQ ID NO: 1) (other strand not given here)				efficiently inhibited the tumorsphere formation	robust activation of IFN genes	remarkable synergy in cell growth regression	enhanced
